Values quoted from earlier work, collected in US20230285286A1, “DRUG VEHICLE COMPOSITIONS AND METHODS OF USE THEREOF” (PS Therapy, Inc., priority 2016, published 2023).
Counter-ions that a name gives are not always drawn.

Legend:
[1] = deionized water at 25° C.

For `CC(C)OC(=O)CCC/C=C\C[C@@H]1[C@@H](/C=C/[C@@H](O)COc2cccc(C(F)(F)F)c2)[C@H](O)C[C@@H]1O` [Travoprost], the “LogP Value” is listed as 4.6 and the “Solubility in Water (PPM)” value [1] is listed as 16000 PPM.

In the case of Gentamicin, the “LogP Value” is listed as -3.1.

In the case of `CC(=O)OCC(=O)[C@@]1(O)CC[C@H]2[C@@H]3CCC4=CC(=O)C=C[C@]4(C)[C@H]3[C@@H](O)C[C@@]21C` [Prednisolone Acetate], the “LogP Value” is given as 1.332.

For `CN(C)CC/C=C1/c2ccccc2COc2ccc(CC(=O)O)cc21` [Olopatadine HCl], the “LogP Value” is given as 3.4 and the “Solubility in Water (PPM)” value [1] is given as 31.3 PPM.

In the case of `COc1cc(Cc2cnc(N)nc2N)cc(OC)c1OC` [Trimethoprim], the “Solubility in Water (PPM)” value [1] is listed as 999 PPM.

In the case of `CN1CCCC(n2nc(Cc3ccc(Cl)cc3)c3ccccc3c2=O)CC1` (centres unmarked) [Azelastine HCl], the “LogP Value” is listed as 3.81 and the “Solubility in Water (PPM)” value [1] is listed as 35 PPM.

In the case of `CCN[C@H]1CN(CCCOC)S(=O)(=O)c2sc(S(N)(=O)=O)cc21` [Brinzolamide], the “LogP Value” is given as -1.8 and the “Solubility in Water (PPM)” value [1] is given as 713 PPM.

In the case of `CC[C@H]1OC(=O)[C@H](C)[C@@H](O[C@H]2C[C@@](C)(OC)[C@@H](O)[C@H](C)O2)[C@H](C)[C@@H](O[C@@H]2O[C@H](C)C[C@H](N(C)C)[C@H]2O)[C@](C)(O)C[C@@H](C)C(=O)[C@H](C)[C@@H](O)[C@]1(C)O` [Erythromycin], the “LogP Value” is given as 2.6 and the “Solubility in Water (PPM)” value [1] is given as 2000 PPM.

For `CCC(=O)[C@@]1(C)[C@H](C)C[C@H]2[C@@H]3CCC4=CC(=O)C=C[C@]4(C)[C@H]3[C@@H](O)C[C@@]21C` [Rimexolone], the “LogP Value” is given as 4.2 and the “Solubility in Water (PPM)” value [1] is given as 0 PPM.

In the case of `NC1=NCC2c3ccccc3Cc3ccccc3N12` (centres unmarked) [Epinastine HCl], the “LogP Value” is listed as 2.34.

In the case of `CCCC(=O)O[C@]1(C(=O)COC(C)=O)CC[C@H]2[C@@H]3C[C@H](F)C4=CC(=O)C=C[C@]4(C)[C@@]3(F)[C@@H](O)C[C@@]21C` [Difluprednate], the “LogP Value” is given as 3.28 and the “Solubility in Water (PPM)” value [1] is given as 1 PPM.

In the case of `COc1c(N2C[C@@H]3CCCN[C@@H]3C2)c(F)cc2c(=O)c(C(=O)O)cn(C3CC3)c12` [Moxifloxacin], the “Solubility in Water (PPM)” value [1] is listed as 1146 PPM.

For `CC(C(=O)O)c1ccc(-c2ccccc2)c(F)c1` (centres unmarked) [Flurbiprofen], the “Solubility in Water (PPM)” value [1] is given as 5 PPM.

For `N#Cc1cc(NC(=O)C(=O)O)c(Cl)c(NC(=O)C(=O)O)c1.NC(CO)(CO)CO.NC(CO)(CO)CO` [Lodoxamide Tromethamine], the “LogP Value” is listed as 0.72 and the “Solubility in Water (PPM)” value [1] is listed as 36.1 PPM.

In the case of `CN1CCC(=C2c3ccccc3CCn3c(C=O)cnc32)CC1` [Alcaftadine], the “LogP Value” is listed as 3.2 and the “Solubility in Water (PPM)” value [1] is listed as 17 PPM.

For `O=C(c1ccccc1)c1ccc2n1CCC2C(=O)O` (centres unmarked) [Ketorolac Tromethamine], the “LogP Value” is listed as -0.92 and the “Solubility in Water (PPM)” value [1] is listed as 861 PPM.

In the case of `Nc1c(CC(=O)O)cccc1C(=O)c1ccc(Br)cc1` [Bromfenac], the “LogP Value” is given as 3.4 and the “Solubility in Water (PPM)” value [1] is given as 12 PPM.

For `CC(C)NCC(O)COc1ccc(CCOCC2CC2)cc1` (centres unmarked) [Betaxolol HCl], the “LogP Value” is listed as 3 and the “Solubility in Water (PPM)” value [1] is listed as 17190 PPM.

For Gramicidin, the “Solubility in Water (PPM)” value [1] is listed as 6 PPM.

In the case of `CC(C)OC(=O)CCC/C=C\C[C@@H]1[C@@H](CC[C@@H](O)CCc2ccccc2)[C@H](O)C[C@@H]1O` [Latanoprost], the “Solubility in Water (PPM)” value [1] is given as 1.29 PPM.

For `CCOCCn1c(N2CCCN(C)CC2)nc2ccccc21` [Emedastine Difumarate], the “LogP Value” is given as 2.6 and the “Solubility in Water (PPM)” value [1] is given as 1440 PPM.

In the case of `CN1CCC(=C2c3ccccc3CC(=O)c3sccc32)CC1` [Ketotifen Fumarate], the “LogP Value” is given as 3.49 and the “Solubility in Water (PPM)” value [1] is given as 7.87 PPM.

In the case of `CCCc1c2oc(C(=O)O)cc(=O)c2cc2c(=O)cc(C(=O)O)n(CC)c12` [Nedocromil Sodium], the “LogP Value” is given as 2.82 and the “Solubility in Water (PPM)” value [1] is given as 80.8 PPM.

In the case of `N[C@@H]1CCCCN(c2c(F)cc3c(=O)c(C(=O)O)cn(C4CC4)c3c2Cl)C1` [Besifloxacin], the “LogP Value” is given as 0.54 and the “Solubility in Water (PPM)” value [1] is given as 0 PPM.

For `O=C(O)c1cc(=O)c2c(OCC(O)COc3cccc4oc(C(=O)O)cc(=O)c34)cccc2o1` [Cromolyn Sodium], the “LogP Value” is listed as 4.8 and the “Solubility in Water (PPM)” value [1] is listed as 100000 PPM.

In the case of `CCOC(=O)O[C@]1(C(=O)OCCl)CC[C@H]2[C@@H]3CCC4=CC(=O)C=C[C@]4(C)[C@H]3[C@@H](O)C[C@@]21C` [Loteprednol Etabonate], the “LogP Value” is given as 3.4 and the “Solubility in Water (PPM)” value [1] is given as 0.5 PPM.

In the case of `CC[C@H]1OC(=O)[C@H](C)[C@@H](O[C@H]2C[C@@](C)(OC)[C@@H](O)[C@H](C)O2)[C@H](C)[C@@H](O[C@@H]2O[C@H](C)C[C@H](N(C)C)[C@H]2O)[C@](C)(O)C[C@@H](C)CN(C)[C@H](C)[C@@H](O)[C@]1(C)O` [Azithromycin], the “LogP Value” is listed as 3.03 and the “Solubility in Water (PPM)” value [1] is listed as 2.37 PPM.

In the case of `CC(C)Cc1ccc(C(C)C(=O)O)cc1` (centres unmarked) [Ibuprofen], the “Solubility in Water (PPM)” value [1] is listed as 21 PPM.

For `NC(=O)Cc1cccc(C(=O)c2ccccc2)c1N` [Nepafenac], the “LogP Value” is listed as 1.53 and the “Solubility in Water (PPM)” value [1] is listed as 14 PPM.

For `CC(C)OC(=O)CCC/C=C\C[C@@H]1[C@@H](/C=C/C(F)(F)COc2ccccc2)[C@H](O)C[C@@H]1O` [Tafluprost], the “LogP Value” is listed as 4.05 and the “Solubility in Water (PPM)” value [1] is listed as 0 PPM.

For `CC(C)(C)NC[C@H](O)COc1cccc2c1CCCC2=O` [Levobunolol HCl], the “Solubility in Water (PPM)” value [1] is given as 251 PPM.

For `O=C(O)CCCN1CCC(O[C@@H](c2ccc(Cl)cc2)c2ccccn2)CC1.O=S(=O)(O)c1ccccc1` [Bepotastine Besilate], the “Solubility in Water (PPM)” value [1] is listed as 50 PPM.

For `NC[C@H]1O[C@H](O[C@H]2[C@H](O)[C@@H](O[C@H]3O[C@H](CO)[C@@H](O)[C@H](N)[C@H]3O)[C@H](N)C[C@@H]2N)[C@H](N)C[C@@H]1O` [Tobramycin], the “LogP Value” is listed as -5.8 and the “Solubility in Water (PPM)” value [1] is listed as 10000 PPM.

For `CCNC(=O)CCC/C=C\C[C@@H]1[C@@H](/C=C/[C@@H](O)CCc2ccccc2)[C@H](O)C[C@@H]1O` [Bimatoprost], the “LogP Value” is listed as 3.2 and the “Solubility in Water (PPM)” value [1] is listed as 19 PPM.

In the case of `CC(=O)O[C@]1(C(C)=O)CC[C@H]2[C@@H]3C[C@H](C)C4=CC(=O)C=C[C@]4(C)[C@@]3(F)[C@@H](O)C[C@@]21C` [Fluorometholone Acetate], the “Solubility in Water (PPM)” value [1] is listed as 6.27 PPM.

In the case of `CCN[C@H]1C[C@H](C)S(=O)(=O)c2sc(S(N)(=O)=O)cc21` [Dorzolamide], the “LogP Value” is listed as -1 and the “Solubility in Water (PPM)” value [1] is listed as 699 PPM.

In the case of `Brc1c(NC2=NCCN2)ccc2nccnc12` [Brimonidine], the “Solubility in Water (PPM)” value [1] is given as 150 PPM.

In the case of `CC(C)(C)NC[C@H](O)COc1nsnc1N1CCOCC1` [Timolol Maleate], the “Solubility in Water (PPM)” value [1] is listed as 5000 PPM.

In the case of `C=CC[C@@H]1/C=C(\C)C[C@H](C)C[C@H](OC)[C@H]2O[C@@](O)(C(=O)C(=O)N3CCCC[C@H]3C(=O)O[C@H](/C(C)=C/[C@@H]3CC[C@@H](O)[C@H](OC)C3)[C@H](C)[C@@H](O)CC1=O)[C@H](C)C[C@@H]2OC` [Tacrolimus], the “LogP Value” is listed as 5.59 and the “Solubility in Water (PPM)” value [1] is listed as 12 PPM.

In the case of Polymyxin B, the “Solubility in Water (PPM)” value [1] is given as 0 PPM.
